# Results as given in patent US10981902B2 (Merck Sharp & Dohme Corp., priority 2017, dated 2021).
# Target: T1, human M4 muscarinic acetylcholine receptor (Homo sapiens, UniProt P08173)
# T1 construct: expressed in transfected cells; host or cells: CHO-K1
# T1 sequence (P08173 1-479): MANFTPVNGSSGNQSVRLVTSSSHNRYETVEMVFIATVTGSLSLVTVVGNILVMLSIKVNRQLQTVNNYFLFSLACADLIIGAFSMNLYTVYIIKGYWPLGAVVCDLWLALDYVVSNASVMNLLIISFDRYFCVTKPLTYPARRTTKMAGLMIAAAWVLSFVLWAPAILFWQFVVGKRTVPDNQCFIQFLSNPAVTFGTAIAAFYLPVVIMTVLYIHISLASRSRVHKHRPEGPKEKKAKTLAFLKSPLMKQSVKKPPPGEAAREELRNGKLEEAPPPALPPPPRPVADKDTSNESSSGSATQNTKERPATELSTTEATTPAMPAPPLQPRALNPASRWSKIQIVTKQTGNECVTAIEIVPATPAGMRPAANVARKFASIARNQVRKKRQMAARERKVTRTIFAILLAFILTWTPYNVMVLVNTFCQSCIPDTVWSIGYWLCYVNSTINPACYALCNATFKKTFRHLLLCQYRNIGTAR
# Assay: human FLIPR-based M4 PAM assay (calcium mobilization, CHO-K1 cells with human M4 receptor and Gαqi5)
# Assay type: cell-based
# Conditions: inflection point (IP) of dose response curve, acetylcholine added at 20% of maximum response, read-out: M4 FLIPPR Hu IP
# Description: In a typical experiment the M4 muscarinic acetylcholine receptor modulating activity of the compounds of the present invention was determined in accordance with the following experimental method. CHO-K1 cells stably transfected with human M4 receptor and chimeric G-protein Gαqi5 (Coward P, et al., Analytical Biochemistry, 270:242-248 (1999)) are thawed from liquid N2 storage, resuspended in growth medium, plated in black, clear bottom 384 well plates, and incubated 16-20 hours at 37° C., 5% CO2. On the day of assay, growth medium is removed, the cells are washed 2 times with wash buffer, and cells are incubated in dye loading buffer at 37° C., 5% CO2 for ˜1 hour. Following dye loading the cell plates are placed in a FLIPR Tetra instrument and while monitoring dye fluorescence (excitation […]), 10 uL of test substance at increasing concentrations is added, and fluorescence values are recorded for 4 min. Next, 10 uL of acetylcholine is added (final concentration calculated so as to achieve 20% of the maximum acetycholine response), and the fluorescence reading is continued for 3.5 min. In some cases, a third addition of acetylcholine (final concentration calculated to achieve 70% of the maximal acetylcholine response) is performed. The resulting dose response curves are fit to a 4 parameter logistic equation and the final result is determined as the inflection point (IP) of the curve
# CHO-K1 cells stably transfected with human M4 receptor and chimeric G-protein Gαqi5 are thawed from liquid N2 storage, resuspended in growth medium, plated in black, clear bottom 384 well plates, and incubated 16-20 hours at 37° C., 5% CO2.
# On the day of assay, growth medium is removed, the cells are washed 2 times with wash buffer, and cells are incuabted in dye loading buffer at 37° C., 5% CO2 for ˜1 h. Following dye loading the cell plates are placed in a FLIPR Tetra instrument and while monitoring dye fluorescence ([…]), 10 uL of test substance at increasing concentrations is added, and fluorescence values are recorded for 4 min. Next, 10 uL of acetylcholine is added (final concentration calculated so as to achieve 20% of the maximum acetycholine response), and the fluorescence reading is continued for 3.5 min. In some cases, a third addition of acetylcholine (final concentration calculated to achieve 70% of the maximal acetylcholine response) is performed.
row,EC50 [nM],Structure (SMILES)
1,45,"COc1cc2ccc(-c3nc(C)ccc3-c3cnc(Cc4ccc(F)cc4)o3)cc2nn1 [Example 54, 2-(4-fluorobenzyl)-5-(2-(3-methoxycinnolin-7-yl)-6-methylpyridin-3-yl)oxazole]"
2,8,"N#Cc1ccc(-c2cnc(CC3CCCC3)o2)c(N2CCn3ccnc3C2)n1 [Example 55, 5-(2-(cyclopentylmethyl)oxazol-5-yl)-6-(5,6-dihydroimidazo[1,2-a]pyrazin-7(8H)-yl)picolinonitrile]"
3,11,"Cc1ccc(-c2cnc(CC3CCCC3)o2)c(N2CCn3ccnc3C2)n1 [Example 56, 2-(cyclopentylmethyl)-5-(2-(5,6-dihydroimidazo[1,2-a]pyrazin-7(8H)-yl)-6-methylpyridin-3-yl)oxazole]"
4,117,"Clc1ccc(-c2cnc(CC3CCCC3)o2)c(N2CCn3ccnc3C2)n1 [Example 57, 5-(6-chloro-2-(5,6-dihydroimidazo[1,2-a]pyrazin-7(8H)-yl)pyridin-3-yl)-2-(cyclopentylmethyl) oxazole]"
5,17,"N#Cc1ccc(-c2cnc(CC3CCCC3)o2)c(N2CCn3ccnc3C2)n1 [Example 58, 5-(2-(cyclopentylmethyl)oxazol-5-yl)-6-(5,6-dihydroimidazo[1,2-a]pyrazin-7(8H)-yl) picolinonitrile]"
6,459,"Cc1ccc(-c2cnc(Cc3ccc(F)cc3)o2)c(N2CCn3ccnc3C2)n1 [Example 59, 5-(2-(5,6-dihydroimidazo[1,2-a]pyrazin-7(8H)-yl)-6-methylpyridin-3-yl)-2-(4-fluorobenzyl)oxazole]"
7,79,"Cc1cn2ccc(-c3nc(C#N)ccc3-c3cnc(CC4CC4)o3)cc2n1 [Example 60, 5-(2-(cyclopropylmethyl)oxazol-5-yl)-6-(2-methylimidazo[1,2-a]pyridin-7-yl)picolinonitrile]"
8,61,"CC(C)Cc1ncc(-c2ccc(C#N)nc2-c2ccc3cccnc3c2)o1 [Example 61, 5-(2-isobutyloxazol-5-yl)-6-(quinolin-7-yl)picolinonitrile]"
9,104,"N#Cc1ccc(-c2cnc(CC3CC3)o2)c(-c2ccc3cccnc3c2)n1 [Example 62, 5-(2-(cyclopropylmethyl)oxazol-5-yl)-6-(quinolin-7-yl)picolinonitrile]"
10,94,"N#Cc1ccc(-c2cnc(CC3CC3)o2)c(-c2ccn3ccnc3c2)n1 [Example 63, 5-(2-(cyclopropylmethyl)oxazol-5-yl)-6-(imidazo[1,2-a]pyridin-7-yl)picolinonitrile]"
11,49,"Cc1nc(CC2CCCC2)oc1-c1ccc(C#N)nc1-c1ccc2cccnc2c1 [Example 64, 5-(2-(cyclopentylmethyl)-4-methyloxazol-5-yl)-6-(quinolin-7-yl)picolinonitrile]"
12,96,"CC(C)(C)CCc1ncc(-c2ccc(C#N)nc2-c2ccc3cccnc3c2)o1 [Example 65, 5-(2-(3,3-dimethylbutyl)oxazol-5-yl)-6-(quinolin-7-yl)picolinonitrile]"
13,42,"CC(C)(C)CCc1ncc(-c2ccc(C#N)nc2-c2ccn3ccnc3c2)o1 [Example 66, 5-(2-(3,3-dimethylbutyl)oxazol-5-yl)-6-(imidazo[1,2-a]pyridin-7-yl) picolinonitrile]"
14,136,"N#Cc1ccc(-c2cnc(CCC(F)(F)F)o2)c(-c2ccn3ccnc3c2)n1 [Example 67, 6-(imidazo[1,2-a]pyridin-7-yl)-5-(2-(3,3,3-trifluoropropyl)oxazol-5-yl)picolinonitrile]"
15,231,"N#Cc1ccc(-c2cnc(CC(O)C3CC3)o2)c(-c2ccc3cccnc3c2)n1 (centres unmarked) [Example 68, 5-(2-(2-cyclopropyl-2-hydroxyethyl)oxazol-5-yl)-6-(quinolin-7-yl)picolinonitrile]"
16,41,"N#Cc1ccc(-c2cnc(CC(F)C3CC3)o2)c(-c2ccc3cccnc3c2)n1 (centres unmarked) [Example 69, 5-(2-(2-cyclopropyl-2-fluoroethyl)oxazol-5-yl)-6-(quinolin-7-yl)picolinonitrile]"

row,EC50 [nM],Structure (SMILES)
1,51,"N#Cc1ccc(-c2cnc(CC3(F)CCCC3)o2)c(-c2ccc3cccnc3c2)n1 [Example 72, 5-(2-((1-fluorocyclopentyl)methyl)oxazol-5-yl)-6-(quinolin-7-yl)picolinonitrile]"
2,65,"N#Cc1ccc(-c2cnc(CC3(F)CCC3)o2)c(-c2ccc3cccnc3c2)n1 [Example 73, 5-(2-((1-fluorocyclobutyl)methyl)oxazol-5-yl)-6-(quinolin-7-yl)picolinonitrile]"
3,138,"CCC(F)(CC)Cc1ncc(-c2ccc(C#N)nc2-c2ccc3cccnc3c2)o1 [Example 74, 5-(2-(2-ethyl-2-fluorobutyl)oxazol-5-yl)-6-(quinolin-7-yl)picolinonitrile]"
4,230,"Cc1cn2ccc(-c3nc(C#N)ccc3-c3cnc(CC4(O)CCCC4)o3)cc2n1 [Example 75, 5-(2-((1-hydroxycyclopentyl)methyl)oxazol-5-yl)-6-(2-methylimidazo [1,2-a]pyridin-7-yl) picolinonitrile]"
5,15,"N#Cc1ccc(-c2cnc(CC3(F)CCCC3)o2)c(-c2ccn3ccnc3c2)n1 [Example 76, 5-(2-((1-fluorocyclopentyl)methyl)oxazol-5-yl)-6-(imidazo [1,2-a]pyridin-7-yl) picolinonitrile]"
6,45,CN1Cc2ncc(-c3nc(C#N)ccc3-c3cnc(CC4(F)CCCC4)o3)cc2C1=O [Example 77]
7,105,"FC1(Cc2ncc(-c3cccnc3-c3ccn4ccnc4c3)o2)CCCC1 [Example 78, 2-((1-fluorocyclopentyl)methyl)-5-(2-(imidazo[1,2-a]pyridin-7-yl)pyridin-3-yl) oxazole]"
8,31,"Cc1cn2ccc(-c3nc(C#N)ccc3-c3cnc(CC4(F)CCCC4)o3)cc2n1 [Example 79, 5-(2-((l-fluorocyclopentyl)methyl)oxazol-5-yl)-6-(2-methylimidazo [1,2-a]pyridin-7-yl) picolinonitrile]"
9,141,"CC(C)(F)Cc1ncc(-c2ccc(C#N)nc2-c2ccc3cccnc3c2)o1 [Example 80, 5-(2-(2-fluoro-2-methylpropyl)oxazol-5-yl)-6-(quinolin-7-yl) picolinonitrile]"
10,184,"CN1Cc2ccc(-c3nc(C#N)ccc3-c3cnc(CC4(O)CCCC4)o3)cc2C1=O [Example 81, 5-(2-((1-hydroxycyclopentyl)methyl)oxazol-5-yl)-6-(2-methyl-3-oxoisoindolin-5-yl) picolinonitrile]"
11,42,"CN1Cc2ccc(-c3nc(C#N)ccc3-c3cnc(CC4(F)CCCC4)o3)cc2C1=O [Example 82, 5-(2-((1-fluorocyclopentyl)methyl)oxazol-5-yl)-6-(2-methyl-3-oxoisoindolin-5-yl)picolinonitrile]"
12,68,"CC(Cc1ncc(-c2ccc(C#N)nc2-c2ccc3cccnc3c2)o1)C(C)(C)F (centres unmarked) [Example 83, 5-(2-(3-fluoro-2,3-dimethylbutyl)oxazol-5-yl)-6-(quinolin-7-yl) picolinonitrile]"
13,30,"N#Cc1ccc(-c2cnc(CC(F)C3CC3)o2)c(-c2ccn3ccnc3c2)n1 (centres unmarked) [Example 84, 5-(2-(2-cyclopropyl-2-fluoroethyl)oxazol-5-yl)-6-(imidazo[1,2-a]pyridin-7-yl) picolinonitrile]"
14,49,"N#Cc1ccc(-c2cnc(CC(F)C3CC3)o2)c(-c2ccn3ccnc3c2)n1 (centres unmarked) [Example 85, 5-(2-(2-cyclopropyl-2-fluoroethyl)oxazol-5-yl)-6-(imidazo[1,2-a]pyridin-7-yl) picolinonitrile]"
15,101,"Cc1cn2ccc(-c3nc(C#N)ccc3-c3cnc(CC(C)(C)F)o3)cc2n1 [Example 86, 5-(2-(2-fluoro-2-methylpropyl)oxazol-5-yl)-6-(2-methylimidazo [1,2-a]pyridin-7-yl) picolinonitrile]"
16,44,"Cc1cn2ccc(-c3nc(C#N)ccc3-c3cnc(CC(F)C4CC4)o3)cc2n1 (centres unmarked) [Example 87, 5-(2-(2-cyclopropyl-2-fluoroethyl)oxazol-5-yl)-6-(2-methylimidazo [1,2-a]pyridin-7-yl) picolinonitrile]"
